Test results as given in US7638535B2, “4-(aminomethyl)-piperidine benzamides as 5HT4-antagonists” (Janssen Pharmaceutica N.V., priority 2003, dated 2009).

target: T1, h5-HT4b (Homo sapiens, UniProt Q13639); experiment: 5HT4 antagonism: [3H]GR113808 binding to membranes of h5-HT4b-HEK 293 clone 9 cells; details: displacement of [3H]GR113808 0.1 nM, h5-HT4b-HEK 293 membranes, 30 min at 25° C.; read-out: pIC50 (5HT4 antagonistic data) (converted)
T1 construct: expressed in transfected cells; host or cells: HEK 293 (clone 9), membrane preparation
Experimental: h5-HT4b-HEK 293 clone 9 cells were cultured in 150 mm Petri dishes and washed twice with cold PBS. The cells were then scraped from the plates and suspended in 50 mM Tris-HCl buffer, pH 7.4 and harvested by centrifugation at 23,500 rpm for 10 minutes. The pellet was resuspended in 5 mM Tris-HCl, pH 7.4 and homogenized with an Ultra Turrax homogenizer. The membranes were collected by centrifugation at 30,000 rpm for 20 min, resuspended in 50 mM Tris-HCl pH 7.4 and stored at −80° C. For the experiment, assay mixtures (0.5 ml) contained 50 μl of the tritiated ligand (5-HT4 antagonist [^3H]GR113808 0.1 nM) and 0.4 ml membrane preparation (15 μg protein/ml). 50 μl of 10% DMSO was added for total binding. 50 μl of 1 μM of (+)-trans-(1-butyl-3-hydroxy-4-piperidinyl)methyl 8-amino-7-chloro-2,3-dihydro-1,4-benzodioxin-5-carboxylate (a proprietary 5HT4 agonist of Janssen Pharmaceutica) was added for determination of non-specific binding.
The [^3H]GR113808 assay buffer was 50 mM HEPES-NaOH, pH 7.4. The mixtures were incubated for 30 min at 25° C. The incubation was terminated by filtration over a Unifilter 96 GF/B presoaked in 0.1% polyethylenimine, followed by six washing steps with 50 mM HEPES-NaOH, pH 7.4.

T1 sequence (Q13639 whole entry): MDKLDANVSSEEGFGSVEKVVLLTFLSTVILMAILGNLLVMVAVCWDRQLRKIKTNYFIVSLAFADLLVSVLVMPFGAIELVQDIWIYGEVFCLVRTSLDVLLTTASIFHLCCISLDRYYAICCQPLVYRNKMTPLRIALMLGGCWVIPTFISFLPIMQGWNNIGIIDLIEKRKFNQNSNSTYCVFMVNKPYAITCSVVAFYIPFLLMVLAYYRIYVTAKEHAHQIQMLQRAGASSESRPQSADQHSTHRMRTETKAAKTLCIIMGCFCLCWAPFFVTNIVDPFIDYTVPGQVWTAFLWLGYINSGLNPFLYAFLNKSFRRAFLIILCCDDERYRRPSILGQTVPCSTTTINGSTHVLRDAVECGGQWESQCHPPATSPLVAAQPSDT

SMILES	IC50 [nM]
CNc1cc2c(c(C(=O)NC[C@@H]3CCN(CCNS(C)(=O)=O)C[C@H]3O)c1)OCCO2 [compound 103]	22.9
CNCCCCN1CC[C@@H](CNC(=O)c2cc(N)cc3c2OCCO3)[C@H](O)C1 [compound 104]	33.9
CNc1cc(C(=O)NC[C@@H]2CCNC[C@H]2O)c2c(c1Cl)OCCO2 [compound 105]	437
Nc1cc2c(c(C(=O)NC[C@@H]3CCN(CCC4OCCO4)C[C@H]3O)c1)OCCO2 [compound 108]	25.7
COCCCN1CC[C@@H](CNC(=O)c2cc(N)cc3c2OCCO3)[C@H](O)C1 [compound 109]	36.3
CCCCN1CC[C@@H](CNC(=O)c2cc(N)cc3c2OCCCO3)[C@H](O)C1 [compound 110]	19.1
CNc1cc2c(c(C(=O)NC[C@@H]3CCN(CCCOC)C[C@H]3O)c1)OCCO2 [compound 115]	16.2
CCCCN1CC[C@@H](CNC(=O)c2cc(NC)cc3c2OCCO3)[C@H](O)C1 [compound 116]	16.2
N#CCc1cc2c(c(C(=O)NC[C@@H]3CCNC[C@H]3O)c1)OCCCO2 [compound 121]	708
COCc1cc2c(c(C(=O)NC[C@@H]3CCN(CCCO)C[C@H]3O)c1)OCCCO2 [compound 122]	32.4
CCCNc1cc2c(c(C(=O)NC[C@@H]3CCN(CCCC#N)C[C@H]3O)c1)OCCCO2 [compound 131]	135
CS(=O)(=O)NCCN1CC[C@@H](CNC(=O)c2cc(N)cc3c2OCCO3)[C@H](O)C1 [compound 132]	91.2
CCCCN1CC[C@@H](CNC(=O)c2cc(NCCC)cc3c2OCCCO3)[C@H](O)C1 [compound 134]	95.5
CCCNc1cc2c(c(C(=O)NC[C@@H]3CCN(CCC4OCCO4)C[C@H]3O)c1)OCCCO2 [compound 135]	93.3
CNc1cc2c(c(C(=O)NC[C@@H]3CCN(CCCCO)C[C@H]3O)c1)OCCCO2 [compound 136]	81.3
COCCCCN1CC[C@@H](CNC(=O)c2cc(N)c(Br)c3c2OCCO3)[C@H](O)C1 [compound 139]	39.8
Nc1cc(C(=O)NC[C@@H]2CCN(CCCO)C[C@H]2O)c2c(c1Br)OCCO2 [compound 140]	93.3
Nc1cc(C(=O)NC[C@@H]2CCN(CCC3OCCO3)C[C@H]2O)c2c(c1Br)OCCO2 [compound 141]	43.7
Nc1cc(C(=O)NC[C@@H]2CCNC[C@H]2O)c2c(c1Br)OCCCO2 [compound 142]	1150
CCCCNc1cc2c(c(C(=O)NC[C@@H]3CCN(CCCC)C[C@H]3O)c1)OCCCO2 [compound 143]	61.7

SMILES	IC50 [nM]
CCCCNc1cc2c(c(C(=O)NC[C@@H]3CCN(CCC4OCCO4)C[C@H]3O)c1)OCCCO2 [compound 144]	112
N#CCCCN1CC[C@@H](CNC(=O)c2cc(N)c(Br)c3c2OCCCO3)[C@H](O)C1 [compound 145]	63.1
Nc1cc(C(=O)NC[C@@H]2CCN(CCCO)C[C@H]2O)c2c(c1Br)OCCCO2 [compound 147]	43.7
CCCNc1cc2c(c(C(=O)NC[C@@H]3CCN(CCCOC)C[C@H]3O)c1)OCCCO2 [compound 148]	100
CCCCNc1cc2c(c(C(=O)NC[C@@H]3CCN(CCCC#N)C[C@H]3O)c1)OCCCO2 [compound 150]	120
CCCNc1cc2c(c(C(=O)NC[C@@H]3CCN(CCCO)C[C@H]3O)c1)OCCCO2 [compound 151]	89.1
CCCCN1CC[C@@H](CNC(=O)c2cc(N)c(Br)c3c2OCCO3)[C@H](O)C1 [compound 153]	13.8
CCCCNc1cc2c(c(C(=O)NC[C@@H]3CCNC[C@H]3O)c1)OCCCO2 [compound 154]	3160
COCCCN1CC[C@@H](CNC(=O)c2cc(N)c(Br)c3c2OCCCO3)[C@H](O)C1 [compound 155]	55
CCCCNc1cc2c(c(C(=O)NC[C@@H]3CCN(CCCO)C[C@H]3O)c1)OCCCO2 [compound 156]	46.8
N#CCCCN1CC[C@@H](CNC(=O)c2cc(C#N)cc3c2OCCCO3)[C@H](O)C1 [compound 160]	20
CCCCN1CC[C@@H](CNC(=O)c2cc(NCC)cc3c2OCCCO3)[C@H](O)C1 [compound 161]	85.1
CC(C)Nc1cc2c(c(C(=O)NC[C@@H]3CCNC[C@H]3O)c1)OCCCO2 [compound 167]	2400
CC(C)Nc1cc2c(c(C(=O)NC[C@@H]3CCN(CCC4OCCO4)C[C@H]3O)c1)OCCCO2 [compound 169]	32.4
N#Cc1cc2c(c(C(=O)NC[C@@H]3CCN(CCC4OCCO4)C[C@H]3O)c1)OCCCO2 [compound 170]	16.2
CNCCCCN1CC[C@@H](CNC(=O)c2cc(C#N)cc3c2OCCCO3)[C@H](O)C1 [compound 171]	1.62
N#Cc1cc2c(c(C(=O)NC[C@@H]3CCNC[C@H]3O)c1)OCCCO2 [compound 175]	123
CCNc1cc2c(c(C(=O)NC[C@@H]3CCNC[C@H]3O)c1)OCCCO2 [compound 178]	1410
CCCCN1CC[C@@H](CNC(=O)c2cc(N)c(Br)c3c2OCCCO3)[C@H](O)C1 [compound 181]	8.51
Nc1cc(C(=O)NC[C@@H]2CCNC[C@H]2O)c2c(c1Cl)OCCCO2 [compound 188]	832

Next, values leading:

IC50 [nM]	SMILES
363	CNCCCCN1CC[C@@H](CNC(=O)c2cc(N)cc3c2OCCCO3)[C@H](O)C1 [compound 106]
20	COCCCN1CC[C@@H](CNC(=O)c2cc(N)cc3c2OCCCO3)[C@H](O)C1 [compound 111]
13.2	Nc1cc2c(c(C(=O)NC[C@@H]3CCN(CCCO)C[C@H]3O)c1)OCCCO2 [compound 112]
8.32	CCCCN1CC[C@@H](CNC(=O)c2cc(NC)cc3c2OCCCO3)[C@H](O)C1 [compound 114]
1.55	Nc1cc2c(c(C(=O)NC[C@@H]3CCN(CCCO)C[C@H]3O)c1)OCCO2 [compound 117]
60.3	Nc1cc2c(c(C(=O)NC[C@@H]3CCN(CCC4OCCO4)C[C@H]3O)c1)OCCCO2 [compound 118]
8.91	CCCCN1CC[C@@H](CNC(=O)c2cc(COC)cc3c2OCCCO3)[C@H](O)C1 [compound 119]
43.7	N#CCc1cc2c(c(C(=O)NC[C@@H]3CCN(CCCO)C[C@H]3O)c1)OCCCO2 [compound 120]
43.7	N#CCc1cc2c(c(C(=O)NC[C@@H]3CCN(CCC4OCCO4)C[C@H]3O)c1)OCCCO2 [compound 123]
26.9	COCCCN1CC[C@@H](CNC(=O)c2cc(COC)cc3c2OCCCO3)[C@H](O)C1 [compound 124]
18.2	COCc1cc2c(c(C(=O)NC[C@@H]3CCN(CCC4OCCO4)C[C@H]3O)c1)OCCCO2 [compound 126]
17	N#CCc1cc2c(c(C(=O)NC[C@@H]3CCN(CC4CCCO4)C[C@H]3O)c1)OCCCO2 (some centres unmarked) [compound 127]
16.6	COc1cc2c(c(C(=O)NC[C@@H]3CCN(CCCC#N)C[C@H]3O)c1)OCCCO2 [compound 128]
16.2	CNc1cc(C(=O)NC[C@@H]2CCN(CC3CCCO3)C[C@H]2O)c2c(c1Cl)OCCO2 (some centres unmarked) [compound 129]
55	CNc1cc(C(=O)NC[C@@H]2CCN(CCCC#N)C[C@H]2O)c2c(c1Cl)OCCO2 [compound 130]
537	Nc1cc(C(=O)NC[C@@H]2CCNC[C@H]2O)c2c(c1Br)OCCO2 [compound 133]

IC50 [nM]	SMILES
27.5	Nc1cc(C(=O)NC[C@@H]2CCN(CC3CCCO3)C[C@H]2O)c2c(c1Br)OCCO2 (some centres unmarked) [compound 137]
81.3	N#CCCCCN1CC[C@@H](CNC(=O)c2cc(N)c(Br)c3c2OCCO3)[C@H](O)C1 [compound 138]
34.7	Nc1cc(C(=O)NC[C@@H]2CCN(CCC3OCCO3)C[C@H]2O)c2c(c1Br)OCCCO2 [compound 146]
3550	CCCNc1cc2c(c(C(=O)NC[C@@H]3CCNC[C@H]3O)c1)OCCCO2 [compound 149]
24	Nc1cc(C(=O)NC[C@@H]2CCN(CC3CCCO3)C[C@H]2O)c2c(c1Br)OCCCO2 (some centres unmarked) [compound 152]
81.3	CCCCNc1cc2c(c(C(=O)NC[C@@H]3CCN(CCCOC)C[C@H]3O)c1)OCCCO2 [compound 157]
1	CCCCN1CC[C@@H](CNC(=O)c2cc(C)cc3c2OCCCO3)[C@H](O)C1 [compound 164]
4.27	Cc1cc2c(c(C(=O)NC[C@@H]3CCN(CCCC#N)C[C@H]3O)c1)OCCCO2 [compound 166]
107	CC(C)Nc1cc2c(c(C(=O)NC[C@@H]3CCN(CCCC#N)C[C@H]3O)c1)OCCCO2 [compound 172]
3.02	CNCCCCN1CC[C@@H](CNC(=O)c2cc(C)cc3c2OCCCO3)[C@H](O)C1 [compound 173]
117	CCCCN1CC[C@@H](CNC(=O)c2cc(NC(C)C)cc3c2OCCCO3)[C@H](O)C1 [compound 174]
16.2	CCNc1cc2c(c(C(=O)NC[C@@H]3CCN(CCC4OCCO4)C[C@H]3O)c1)OCCCO2 [compound 176]
63.1	COCCCN1CC[C@@H](CNC(=O)c2cc(NC(C)C)cc3c2OCCCO3)[C@H](O)C1 [compound 179]
43.7	CC(C)Nc1cc2c(c(C(=O)NC[C@@H]3CCN(CCCO)C[C@H]3O)c1)OCCCO2 [compound 180]
100	CCNc1cc2c(c(C(=O)NC[C@@H]3CCN(CCCC#N)C[C@H]3O)c1)OCCCO2 [compound 182]
